According to patent US20240246969A1, “HETEROCYCLIC DERIVATIVES AS CAMKK2 INHIBITORS” (Bristol-Myers Squibb Company, priority 2021, published 2024):

What was measured:
[1] = system: phosphorylation of CaMKK2 substrate AMPK at Thr172 in A549 lung carcinoma cells; test: Cell-based phosphorylation assay (Phospho-AMPK Thr172 HTRF); conditions: Homo sapiens; A549 cells, compounds 4 hours, 3 uM Calcium Ionophore 30 minutes; read-out: Cellular IC50 Phosphorylation
Method: Cellular CaMKK2 inhibition by compounds was measured by monitoring the phosphorylation of CaMKK2 substrate AMPK at Thr172 in A549 lung carcinoma cells (ATCC) using CISBIO Phospho-AMPK (Thr172) HTRF kit. A549 cells were plated in 96 well plates at 8000 cells/well in DMEM+10% FBS+1× pen/step+1×NEAA and incubated at 37° C. overnight in a CO2 incubator. Cells were then treated with compounds for 4 hours. After cells were stimulated by 3 uM Calcium Ionophore (Sigma) at 37° C. for 30 minutes, cells were washed and then lysed with cell lysis buffer (CisBio) for 30 minutes. […] Plates were incubated overnight and then read using HTRF mode by BMG PHERAstarFS.

[2] = system: A549 lung carcinoma cells; test: Cell proliferation assay (CellTiter 96 Aqueous); format: cell-based; conditions: Homo sapiens, compounds 48 hours, read-out: Cellular IC50 Proliferation
Method: Proliferation was measured using CellTiter 96 Aqueous Non-Radioactive Cell Proliferation Assay Kit (Promega), which determines the number of viable cells in culture based on quantitation of dehydrogenase enzymes, as an indicator of metabolically active cells. A549 lung carcinoma cells were seeded at 2,000 cells/well in a 96-well tissue culture treated plate in DMEM+10% FBS+1× pen/step+1×NEAA and incubated at 37° C. overnight in a CO2 incubator. Cells were treated with compounds for 48 hours. Then viability was measured using CellTiter 96 Aqueous Non-Radioactive Cell Proliferation Assay Kit (Promega). Detection was performed using Biotek Cytation 5 Cell Imaging Multi Mode plate reader.

CaMKK2 = CaMKK2 (Homo sapiens, UniProt Q96RR4); test: CaMKK2 binding assay (LanthaScreen TR-FRET)
Sequence of CaMKK2 (Q96RR4 whole entry): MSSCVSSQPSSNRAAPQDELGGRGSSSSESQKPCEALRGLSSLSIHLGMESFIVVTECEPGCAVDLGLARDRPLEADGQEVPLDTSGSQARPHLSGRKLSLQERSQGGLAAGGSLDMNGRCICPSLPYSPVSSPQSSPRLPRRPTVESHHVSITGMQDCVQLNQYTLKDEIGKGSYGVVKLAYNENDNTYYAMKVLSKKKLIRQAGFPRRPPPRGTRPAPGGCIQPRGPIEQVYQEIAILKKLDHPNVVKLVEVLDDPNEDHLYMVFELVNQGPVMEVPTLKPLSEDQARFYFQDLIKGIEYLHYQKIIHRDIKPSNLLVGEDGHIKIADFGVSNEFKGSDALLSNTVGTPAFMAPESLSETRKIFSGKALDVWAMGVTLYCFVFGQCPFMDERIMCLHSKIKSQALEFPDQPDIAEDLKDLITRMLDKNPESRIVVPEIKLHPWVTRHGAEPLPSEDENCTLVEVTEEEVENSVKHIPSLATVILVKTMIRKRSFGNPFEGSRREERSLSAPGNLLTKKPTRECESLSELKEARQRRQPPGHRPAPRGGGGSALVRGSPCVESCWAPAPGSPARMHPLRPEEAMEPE
Method: The ability of test compounds to bind and inhibit the activity of CaMKK2 were determined using a binding assay using LanthaScreent (Thermofisher) detection reagents in a 384-well plate format using the following assay buffer: 50 mM HEPES (pH7.5), 10 mM MgCl2, 1 mM EGTA, and 0.01% Brij-35.
A 10-point serial dilution of inhibitor compound in 0.5% DMSO was added to each well of the plate. The final assay volume in well was 15 uL. […] A ratio was calculated from the 2 readouts and fitted to a 4-parameter fit to determine the binding IC50.

Compound	IC50 [1]	IC50 [2]	IC50 (CaMKK2)
O=C(O)c1ccc(-n2ccc3ncc(-c4ccccc4)nc32)cc1C1CCCC1 [Example 1, 2-Cyclopentyl-4-(3-phenylpyrrolo[2,3-b]pyrazin-5-yl)benzoic Acid]	< 0.1 µM	> 10 µM	< 0.1 µM
O=C(O)c1ccc(-n2ccc3ncc(-c4cccc(C5CC5)c4)nc32)cc1C1CCCC1 [Example 2, 2-Cyclopentyl-4-[3-(3-cyclopropylphenyl)pyrrolo[2,3-b]pyrazin-5-yl]benzoic Acid]	< 0.1 µM	> 10 µM	< 0.1 µM
O=C(O)c1ccc(-c2ccnc3cc(-c4ccccc4)nn23)cc1C1CCCC1 [Example 2.2, 2-Cyclopentyl-4-(2-phenylpyrazolo[1,5-a]pyrimidin-7-yl)benzoic Acid]	0.1 to 1 µM	> 10 µM	< 0.1 µM
O=C(O)c1ccc(-c2ccnc3cc(-c4ccccc4F)nn23)cc1C1CCCC1 [Example 2.6, 2-Cyclopentyl-4-(2-(2-fluorophenyl)pyrazolo[1,5-a]pyrimidin-7-yl)benzoic Acid]	0.1 to 1 µM	> 10 µM	< 0.1 µM
CCOc1cccc(-c2cc3nccc(-c4ccc(C(=O)O)c(C5CCCC5)c4)n3n2)c1 [Example 2.10, 2-Cyclopentyl-4-(2-(3-ethoxyphenyl)pyrazolo[1,5-a]pyrimidin-7-yl)benzoic Acid]	0.1 to 1 µM	> 10 µM	< 0.1 µM
O=C(O)c1ccc(-c2ccnc3cc(-c4cccc(OCC5CC5)c4)nn23)cc1C1CCCC1 [Example 2.11, 2-Cyclopentyl-4-(2-(3-(cyclopropylmethoxy)phenyl)pyrazolo[1,5-a]pyrimidin-7-yl)benzoic Acid]	0.1 to 1 µM	> 10 µM	< 0.1 µM
O=C(O)c1ccc(-n2ccc3ncc(-c4cccc(Cl)c4)nc32)cc1C1CCCC1 [Example 3, 4-[3-(3-Chlorophenyl)pyrrolo[2,3-b]pyrazin-5-yl]-2-cyclopentyl-benzoic Acid]	0.1 to 1 µM	> 10 µM	< 0.1 µM
O=C(O)c1ccc(-c2ccnc3cn(-c4ccc(F)cc4)nc23)cc1C1CCCC1 [Example 3.1, 2-Cyclopentyl-4-[2-(4-fluorophenyl)pyrazolo[4,3-b]pyridin-7-yl]benzoic Acid]	0.1 to 1 µM	> 10 µM	< 0.1 µM
O=C(O)c1ccc(-c2ccnc3cn(-c4ccccc4)nc23)cc1C1CCCC1 [Example 3.2, 2-Cyclopentyl-4-(2-phenyl-2H-pyrazolo[4,3-b]pyridin-7-yl)benzoic Acid]	< 0.1 µM	> 10 µM	< 0.1 µM
Cc1cccc(-n2cc3nccc(-c4ccc(C(=O)O)c(C5CCCC5)c4)c3n2)c1 [Example 3.3, 2-Cyclopentyl-4-(2-(m-tolyl)-2H-pyrazolo[4,3-b]pyridin-7-yl)benzoic Acid]	0.1 to 1 µM	> 10 µM	< 0.1 µM
O=C(O)c1ccc(-c2ccnc3cn(-c4cccc(C5CC5)c4)nc23)cc1C1CCCC1 [Example 3.4, 2-Cyclopentyl-4-(2-(3-cyclopropylphenyl)-2H-pyrazolo[4,3-b]pyridin-7-yl)benzoic Acid]	< 0.1 µM	> 10 µM	< 0.1 µM
O=C(O)c1ccc(-c2c(F)cnc3cn(-c4ccc(F)cc4)nc23)cc1C1CCCC1 [Example 3.5, 2-Cyclopentyl-4-(6-fluoro-2-(4-fluorophenyl)-2H-pyrazolo[4,3-b]pyridin-7-yl)benzoic Acid]	0.1 to 1 µM	> 10 µM	< 0.1 µM
O=C(O)c1ccc(-c2ccnc3cn(-c4cccc(Cl)c4)nc23)cc1C1CCCC1 [Example 3.6, 4-(2-(3-Chlorophenyl)-2H-pyrazolo[4,3-b]pyridin-7-yl)-2-cyclopentylbenzoic Acid]	0.1 to 1 µM	> 10 µM	< 0.1 µM
Cc1cc(Cl)cc(-n2cc3ncc(F)c(-c4ccc(C(=O)O)c(C5CCCC5)c4)c3n2)c1 [Example 3.7, 4-(2-(3-Chloro-5-methylphenyl)-6-fluoro-2H-pyrazolo[4,3-b]pyridin-7-yl)-2-cyclopentylbenzoic Acid]	< 0.1 µM	> 10 µM	< 0.1 µM
O=C(O)c1ccc(-c2c(F)cnc3cn(-c4cccc(C(F)(F)F)c4)nc23)cc1C1CCCC1 [Example 3.9, 2-Cyclopentyl-4-(6-fluoro-2-(3-(trifluoromethyl)phenyl)-2H-pyrazolo[4,3-b]pyridin-7-yl)benzoic Acid]	0.1 to 1 µM	> 10 µM	< 0.1 µM
O=C(O)c1ccc(-c2c(F)cnc3cn(-c4cc(F)cc(F)c4)nc23)cc1C1CCCC1 [Example 3.12, 2-Cyclopentyl-4-(2-(3,5-difluorophenyl)-6-fluoro-2H-pyrazolo[4,3-b]pyridin-7-yl)benzoic Acid]	0.1 to 1 µM	> 10 µM	< 0.1 µM
O=C(O)c1ccc(-c2c(F)cnc3cn(-c4cc(Cl)cc(Cl)c4)nc23)cc1C1CCCC1 [Example 3.16, 2-Cyclopentyl-4-(2-(3,5-dichlorophenyl)-6-fluoro-2H-pyrazolo[4,3-b]pyridin-7-yl)benzoic Acid]	< 0.1 µM	> 10 µM	< 0.1 µM
COc1cc(F)cc(-n2cc3ncc(F)c(-c4ccc(C(=O)O)c(C5CCCC5)c4)c3n2)c1 [Example 3.17, 2-Cyclopentyl-4-(6-fluoro-2-(3-fluoro-5-methoxyphenyl)-2H-pyrazolo[4,3-b]pyridin-7-yl)benzoic Acid]	0.1 to 1 µM	> 10 µM	< 0.1 µM
Cc1cc(OC(F)(F)F)cc(-n2cc3ncc(F)c(-c4ccc(C(=O)O)c(C5CCCC5)c4)c3n2)c1 [Example 3.18, 2-Cyclopentyl-4-(6-fluoro-2-(3-methyl-5-(trifluoromethoxy)phenyl)-2H-pyrazolo[4,3-b]pyridin-7-yl)benzoic Acid]	0.1 to 1 µM	> 10 µM	< 0.1 µM
O=C(O)c1ccc(-c2ccnn3cc(-c4ccccc4)cc23)cc1C1CCCC1 [Example 4.1, 2-Cyclopentyl-4-(6-phenylpyrrolo[1,2-b]pyridazin-4-yl)benzoic Acid]	0.1 to 1 µM	> 10 µM	< 0.1 µM
Cc1cc(C)cc(-c2cnc3ccn(-c4ccc(C(=O)O)c(N[C@H]5CCNC5)c4)c3n2)c1 [Example 32, (S)-4-(3-(3,5-dimethylphenyl)-5H-pyrrolo[2,3-b]pyrazin-5-yl)-2-(pyrrolidin-3-ylamino)benzoic Acid]	–	–	< 0.1 µM
Cc1cc(C)cc(-c2cnc3ccn(-c4ccc(C(=O)O)c(N[C@@H]5CCCNC5)c4)c3n2)c1 [Example 33, (R)-4-(3-(3,5-dimethylphenyl)-5H-pyrrolo[2,3-b]pyrazin-5-yl)-2-(piperidin-3-ylamino)benzoic Acid]	–	–	< 0.1 µM
Cc1cc(C)cc(-c2cnc3ccn(-c4ccc(C(=O)O)c(NC5CCNCC5)c4)c3n2)c1 [Example 34, 4-(3-(3,5-dimethylphenyl)-5H-pyrrolo[2,3-b]pyrazin-5-yl)-2-(piperidin-4-ylamino)benzoic Acid]	–	–	< 0.1 µM
Cc1cc(C)cc(-c2cnc3ccn(-c4ccc(C(=O)O)c(O[C@@H]5CCNC5)c4)c3n2)c1 [Example 35, (R)-4-(3-(3,5-dimethylphenyl)-5H-pyrrolo[2,3-b]pyrazin-5-yl)-2-(pyrrolidin-3-yloxy)benzoic Acid]	–	–	0.1 to 1 µM
